In patent publication US20100120769A1, “CYCLOHEXYL PIPERAZINYL METHANONE DERIVATIVES” (priority 2006, published 2010):
pKi: −log10 of the molar value.

Target: T1, histamine 3 receptor (H3R) (Homo sapiens, UniProt Q9Y5N1)
T1 construct: expressed in transfected cells; host or cells: CHO cells (HR3-CHO)
Experiment: Binding assay with 3H-(R)α-methylhistamine (competition binding, HR3-CHO membranes)
Details: membrane of the human HR3-CHO cell line, 3H(R)α-Methylhistamine 1 nM; Ki calculated from IC50 by Cheng-Prusoff
Description: Binding Assay with ^3H-(R)α-methylhistamine
Saturation binding experiments were performed using HR3-CHO membranes prepared as described in Takahashi, K, Tokita, S., Kotani, H. (2003) J. Pharmacol. Exp. Therapeutics 307, 213-218.
An appropriate amount of membrane (60 to 80 μg protein/well) was incubated with increasing concentrations of ^3H(R)α-Methylhistamine di-hydrochloride (0.10 to 10 nM). Non specific binding was determined using a 200 fold excess of cold (R)α-Methylhistamine dihydrobromide (500 nM final concentration). The incubation was carried out at room temperature (in deep-well plates shaking for three hours). The final volume in each well was 250 μl. The incubation was followed by rapid filtration on GF/B filters (pre-soaked with 100 μl of 0.5% PEI in Tris 50 mM shaking at 200 rpm for two hours). The filtration was made using a cell-harvester and the filter plates were then washed five times with ice cold washing buffer containing 0.5 M NaCl. After harvesting, the plates were dried at 55° C. for 60 min, then we added scintillation fluid (Microscint 40, 40 microl in each well) and the amount of radioactivity on the filter was determined in Packard top-counter after shaking the plates for two hours at 200 rpm at room temperature.
Binding Buffer: 50 mM Tris-HCl pH 7.4 and 5 mM MgCl2x6H2O pH 7.4. Washing Buffer: 50 mM Tris-HCl pH 7.4 and 5 mM MgCl2x6H2O and 0.5 M NaCl pH 7.4.
Indirect measurement of affinity of H3R inverse agonists: twelve increasing concentrations (ranging from 10 μM to 0.3 nM) of the selected compounds were always tested in competition binding experiments using membrane of the human HR3-CHO cell line. An appropriate amount of protein, e.g. approximately 500 cpm binding of RAMH at Kd, were incubated for 1 hour at room temperature in 250 μl final volume in 96-well plates in presence of ^3H(R)α-Methylhistamine (1 nM final concentration=Kd). […]
All compounds were tested at a single concentration in duplicates. […] Ki's were calculated from IC50 based on Cheng-Prusoff equation (Cheng, Y, Prusoff, W H (1973) Biochem Pharmacol 22, 3099-3108).

T1 sequence (Q9Y5N1 whole entry): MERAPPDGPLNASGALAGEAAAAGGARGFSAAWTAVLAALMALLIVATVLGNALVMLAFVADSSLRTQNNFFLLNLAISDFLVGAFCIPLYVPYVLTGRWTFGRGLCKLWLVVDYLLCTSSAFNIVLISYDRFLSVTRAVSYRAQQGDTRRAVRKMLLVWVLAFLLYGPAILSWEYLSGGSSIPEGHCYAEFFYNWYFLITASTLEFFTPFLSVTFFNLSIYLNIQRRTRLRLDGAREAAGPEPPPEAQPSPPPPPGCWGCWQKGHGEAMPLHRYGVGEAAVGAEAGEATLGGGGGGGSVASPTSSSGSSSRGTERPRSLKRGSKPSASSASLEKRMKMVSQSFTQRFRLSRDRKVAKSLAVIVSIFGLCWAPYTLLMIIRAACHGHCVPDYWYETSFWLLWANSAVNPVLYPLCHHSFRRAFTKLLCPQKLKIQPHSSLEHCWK

pKi	Structure (SMILES)
7.28	Cc1ccc(NC2CCC(C(=O)N3CCN(C(C)C)CC3)CC2)cc1 (stereo not drawn) [Example 1, (4-Isopropyl-piperazin-1-yl)-(4-p-tolylamino-cyclohexyl)-methanone]
7.42	CC(C)N1CCN(C(=O)[C@H]2CC[C@H](NC(=O)N(C)c3cccc(F)c3)CC2)CC1 [Example 32, 1-(3-fluoro-phenyl)-3-[trans-4-(4-isopropyl-piperazine-1-carbonyl)-cyclohexyl]-1-methyl-urea]
7.06	CC(C)N1CCN(C(=O)[C@H]2CC[C@H](NC(=O)c3ccc(Cl)cc3Cl)CC2)CC1 [Example 13, 2,4-dichloro-N-[trans-4-(4-isopropyl-piperazine-1-carbonyl)-cyclohexyl]-benzamide]
